{"source": "patent US20250114338A1", "about": "“TETRAHYDRO-PYRIDO[3,4-b]INDOLE ESTROGEN RECEPTOR MODULATORS AND USES THEREOF” (Genentech, Inc., priority 2014, published 2025)"}
{"tested_on": "ER-alpha MCF7", "test": "ER-alpha MCF7 HCS EC50; stated as measured by in vitro cell proliferation assays of Examples 902 and 903", "type": "cell-based", "conditions": "Homo sapiens, MCF7, MCF7 cells; Table 2", "summary_of_the_method": "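MCF7 cells seeded 1000-2000 cells/well for 16 h, then treated with nine-point 1:2 DMSO dilution series in quadruplicate at 37 °C, 5% CO2 for 4 days. Viable cells quantified by CellTiter-Glo ATP luminescence; EC50 calculated. Controls: fulvestrant at final 100 nM, DMSO 0.2% v/v.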", "units": {"EC50": "nM"}}
{"smiles": "C[C@H](O)CN1[C@H](c2c(F)cc(OC3CN(CCCF)C3)cc2F)c2[nH]c3ccccc3c2C[C@H]1C", "note": "[Example 263, (S)-1-((1R,3R)-1-(2,6-difluoro-4-((1-(3-fluoropropyl)azetidin-3-yl)oxy)phenyl)-3-methyl-1,3,4,9-tetrahydro-2H-pyrido[3,4-b]indol-2-yl)propan-2-ol]", "EC50": 0.359}
{"smiles": "C[C@@H]1Cc2c([nH]c3ccccc23)[C@@H](c2c(F)cc(OC3CN(CCCF)C3)cc2F)N1C[C@@H](C)O", "note": "[Example 264, (R)-1-((1R,3R)-1-(2,6-difluoro-4-((1-(3-fluoropropyl)azetidin-3-yl)oxy)phenyl)-3-methyl-1,3,4,9-tetrahydro-2H-pyrido[3,4-b]indol-2-yl)propan-2-ol]", "EC50": 0.969}
{"smiles": "C[C@@H]1Cc2c([nH]c3ccccc23)[C@@H](c2c(F)cc(OCCN3CC(CCl)C3)cc2F)N1CC(C)(C)F", "note": "[Example 265, (1R,3R)-1-[4-[2-[3-(chloromethyl)azetidin-1-yl]ethoxy]-2,6-difluoro-phenyl]-2-(2-fluoro-2-methyl-propyl)-3-methyl-1,3,4,9-tetrahydropyrido[3,4-b]indole]", "EC50": 1.7}
{"smiles": "C[C@@H]1Cc2c([nH]c3ccccc23)[C@@H](c2ccc(OC3CN(CCCF)C3)c(Cl)c2)N1CC(C)(C)F", "note": "[Example 266, (1R,3R)-1-[3-chloro-4-[1-(3-fluoropropyl)azetidin-3-yl]oxy-phenyl]-2-(2-fluoro-2-methyl-propyl)-3-methyl-1,3,4,9-tetrahydropyrido[3,4-b]indole]", "EC50": 10}
{"smiles": "C[C@@H]1Cc2c([nH]c3ccccc23)[C@@H](c2ccc(OC3CN(CCCF)C3)c(F)c2)N1CC(C)(C)F", "note": "[Example 267, (1R,3R)-1-[3-fluoro-4-[1-(3-fluoropropyl)azetidin-3-yl]oxy-phenyl]-2-(2-fluoro-2-methyl-propyl)-3-methyl-1,3,4,9-tetrahydropyrido[3,4-b]indole]", "EC50": 0.744}
{"smiles": "C[C@@H]1Cc2c([nH]c3ccccc23)[C@@H](c2c(F)cc(OCCN3CC(CF)C3)cc2F)N1C[C@@H](O)CO", "note": "[Example 268, (2R)-3-[(1R,3R)-1-[2,6-difluoro-4-[2-[3-(fluoromethyl)azetidin-1-yl]ethoxy]phenyl]-3-methyl-1,3,4,9-tetrahydropyrido[3,4-b]indol-2-yl]propane-1,2-diol]", "EC50": 8}
{"smiles": "C[C@@H]1Cc2c([nH]c3ccccc23)[C@@H](c2c(F)cc(OC3CN(C[C@@H]4C[C@H]4F)C3)cc2F)N1CC(C)(C)F", "note": "[Example 269, (1R,3R)-1-[2,6-difluoro-4-[1-[[(1S,2R)-2-fluorocyclopropyl]methyl]azetidin-3-yl]oxy-phenyl]-2-(2-fluoro-2-methyl-propyl)-3-methyl-1,3,4,9-tetrahydropyrido[3,4-b]indole]", "EC50": 1}
{"smiles": "C[C@H](CF)CN1[C@H](c2c(F)cc(OCCN3CC(CF)C3)cc2F)c2[nH]c3ccccc3c2C[C@H]1C", "note": "[Example 270, (1R,3R)-1-(2,6-difluoro-4-(2-(3-(fluoromethyl)azetidin-1-yl)ethoxy)phenyl)-2-((S)-3-fluoro-2-methylpropyl)-3-methyl-2,3,4,9-tetrahydro-1H-pyrido[3,4-b]indole]", "EC50": 0.459}
{"smiles": "C[C@@H]1Cc2c([nH]c3ccccc23)[C@@H](c2c(F)cc(OCCN3CC(CF)C3)cc2F)N1C[C@](C)(O)CO", "note": "[Example 271, (S)-3-((1R,3R)-1-(2,6-difluoro-4-(2-(3-(fluoromethyl)azetidin-1-yl)ethoxy)phenyl)-3-methyl-1,3,4,9-tetrahydro-2H-pyrido[3,4-b]indol-2-yl)-2-methylpropane-1,2-diol]", "EC50": 5}
{"smiles": "C[C@@H]1Cc2c([nH]c3ccccc23)[C@@H](c2c(F)cc(OC3CN(CCCF)C3)cc2F)N1CC(C)(C)CF", "note": "[Example 272, (1R,3R)-1-[2,6-difluoro-4-[1-(3-fluoropropyl)azetidin-3-yl]oxy-phenyl]-2-(3-fluoro-2,2-dimethyl-propyl)-3-methyl-1,3,4,9-tetrahydropyrido[3,4-b]indole]", "EC50": 0.685}
{"smiles": "C[C@@H]1Cc2c([nH]c3ccccc23)[C@@H](c2ccc(OCCN3CC(CF)C3)cc2F)N1C[C@@](C)(F)CO", "note": "[Example 273, (R)-2-fluoro-3-((1R,3R)-1-(2-fluoro-4-(2-(3-(fluoromethyl)azetidin-1-yl)ethoxy)phenyl)-3-methyl-1,3,4,9-tetrahydro-2H-pyrido[3,4-b]indol-2-yl)-2-methylpropan-1-ol]", "EC50": 0.28}
{"smiles": "C[C@@H]1Cc2c([nH]c3ccccc23)[C@@H](c2ccc(OCCN3CC(CF)C3)cc2F)N1C[C@](C)(F)CO", "note": "[Example 274, (S)-2-fluoro-3-((1R,3R)-1-(2-fluoro-4-(2-(3-(fluoromethyl)azetidin-1-yl)ethoxy)phenyl)-3-methyl-1,3,4,9-tetrahydro-2H-pyrido[3,4-b]indol-2-yl)-2-methylpropan-1-ol]", "EC50": 0.253}
{"smiles": "C[C@@H]1Cc2c([nH]c3ccccc23)[C@@H](c2ccc(OCCN3CC(CF)C3)cc2)N1C[C@@](C)(F)CO", "note": "[Example 275, (R)-2-fluoro-3-((1R,3R)-1-(4-(2-(3-(fluoromethyl)azetidin-1-yl)ethoxy)phenyl)-3-methyl-1,3,4,9-tetrahydro-2H-pyrido[3,4-b]indol-2-yl)-2-methylpropan-1-ol]", "EC50": 0.166}
{"smiles": "C[C@@H]1Cc2c([nH]c3ccccc23)[C@@H](c2ccc(OCCN3CC(CF)C3)cc2)N1C[C@](C)(F)CO", "note": "[Example 276, (S)-2-fluoro-3-((1R,3R)-1-(4-(2-(3-(fluoromethyl)azetidin-1-yl)ethoxy)phenyl)-3-methyl-1,3,4,9-tetrahydro-2H-pyrido[3,4-b]indol-2-yl)-2-methylpropan-1-ol]", "EC50": 0.309}
{"smiles": "C[C@@H]1Cc2c([nH]c3ccccc23)[C@@H](c2c(F)cc(OC3CN(CCCF)C3)cc2F)N1CC(F)(F)F", "note": "[Example 277, (1R,3R)-1-[2,6-difluoro-4-[1-(3-fluoropropyl)azetidin-3-yl]oxy-phenyl]-3-methyl-2-(2,2,2-trifluoroethyl)-1,3,4,9-tetrahydropyrido[3,4-b]indole]", "EC50": 0.09}
{"smiles": "C[C@@H]1Cc2c([nH]c3ccccc23)[C@@H](c2c(F)cc(OCCN3CC(CF)C3)cc2F)N1C[C@@](C)(O)CO", "note": "[Example 278, (2R)-3-[(1R,3R)-1-[2,6-difluoro-4-[2-[3-(fluoromethyl)azetidin-1-yl]ethoxy]phenyl]-3-methyl-1,3,4,9-tetrahydropyrido[3,4-b]indol-2-yl]-2-methyl-propane-1,2-diol]", "EC50": 0.31}
{"smiles": "C[C@@H]1Cc2c([nH]c3ccccc23)[C@@H](c2ccc(OCCN3CC(CF)C3)c(F)c2)N1CC(C)(C)F", "note": "[Example 279, (1R,3R)-2-(2-fluoro-2-methylpropyl)-1-(3-fluoro-4-(2-(3-(fluoromethyl)azetidin-1-yl)ethoxy)phenyl)-3-methyl-2,3,4,9-tetrahydro-1H-pyrido[3,4-b]indole]", "EC50": 0.16}
{"smiles": "C[C@@H]1Cc2c([nH]c3ccccc23)[C@H](c2ccc(OCCN3CC(CF)C3)c(F)c2)N1CC(C)(C)F", "note": "[Example 280, (1S,3R)-2-(2-fluoro-2-methylpropyl)-1-(3-fluoro-4-(2-(3-(fluoromethyl)azetidin-1-yl)ethoxy)phenyl)-3-methyl-2,3,4,9-tetrahydro-1H-pyrido[3,4-b]indole]", "EC50": 6}
{"smiles": "C[C@@H]1Cc2c([nH]c3ccccc23)[C@@H](c2ccc(OCCN3CC(CF)C3)c(F)c2F)N1CC(C)(C)F", "note": "[Example 281, (1R,3R)-1-(2,3-difluoro-4-(2-(3-(fluoromethyl)azetidin-1-yl)ethoxy)phenyl)-2-(2-fluoro-2-methylpropyl)-3-methyl-2,3,4,9-tetrahydro-1H-pyrido[3,4-b]indole]", "EC50": 0.183}
{"smiles": "C[C@@H]1Cc2c([nH]c3ccccc23)[C@@H](c2c(F)cc(OC3CN(C[C@@H]4C[C@@H]4F)C3)cc2F)N1CC(C)(C)F", "note": "[Example 282, (1R,3R)-1-(2,6-difluoro-4-((1-(((1S,2S)-2-fluorocyclopropyl)methyl)azetidin-3-yl)oxy)phenyl)-2-(2-fluoro-2-methylpropyl)-3-methyl-2,3,4,9-tetrahydro-1H-pyrido[3,4-b]indole]", "EC50": 1}
{"smiles": "CC(=O)CN1[C@H](c2c(F)cc(OC3CN(CCCF)C3)cc2F)c2[nH]c3ccccc3c2C[C@H]1C", "note": "[Example 283, 1-[(1R,3R)-1-[2,6-difluoro-4-[1-(3-fluoropropyl)azetidin-3-yl]oxy-phenyl]-3-methyl-1,3,4,9-tetrahydropyrido[3,4-b]indol-2-yl]propan-2-one]", "EC50": 1}
{"smiles": "C[C@@H]1Cc2c([nH]c3ccccc23)[C@@H](c2c(F)cc(OC3CN(CCCF)C3)cc2F)N1CC(C)(C)CO", "note": "[Example 284, 3-[(1R,3R)-1-[2,6-difluoro-4-[1-(3-fluoropropyl)azetidin-3-yl]oxy-phenyl]-3-methyl-1,3,4,9-tetrahydropyrido[3,4-b]indol-2-yl]-2,2-dimethyl-propan-1-ol]", "EC50": 0.382}
{"smiles": "CCS(=O)(=O)N1[C@H](c2c(F)cc(OC3CN(CCCF)C3)cc2F)c2[nH]c3ccccc3c2C[C@H]1C", "note": "[Example 285, (1R,3R)-1-[2,6-difluoro-4-[1-(3-fluoropropyl)azetidin-3-yl]oxy-phenyl]-2-ethylsulfonyl-3-methyl-1,3,4,9-tetrahydropyrido[3,4-b]indole]", "EC50": 2}
{"smiles": "C[C@@H]1Cc2c([nH]c3ccccc23)[C@@H](c2c(F)cc(OCCN3CC(CF)C3)cc2F)N1CC(F)(F)CO", "note": "[Example 286, 3-[(1R,3R)-1-[2,6-difluoro-4-[2-[3-(fluoromethyl)azetidin-1-yl]ethoxy]phenyl]-3-methyl-1,3,4,9-tetrahydropyrido[3,4-b]indol-2-yl]-2,2-difluoro-propan-1-ol]", "EC50": 0.0978}
{"smiles": "C[C@@H]1Cc2c([nH]c3ccccc23)[C@@H](c2c(F)cc(OCCN3CC(CF)C3)cc2F)N1CC(C)(C)CO", "note": "[Example 287, 3-[(1R,3R)-1-[2,6-difluoro-4-[2-[3-(fluoromethyl)azetidin-1-yl]ethoxy]phenyl]-3-methyl-1,3,4,9-tetrahydropyrido[3,4-b]indol-2-yl]-2,2-dimethyl-propan-1-ol]", "EC50": 1}
